Source: patent US11000033B2, “Ketone or oxime compound, and herbicide” (NISSAN CHEMICAL CORPORATION, priority 2014, dated 2021)

How the values were obtained:
Assay type in all cases: in vivo
[1] = test system: Stellaria media; experiment: Test Example 4: herbicidal effect by soil treatment (symbol P); settings: application herbicide amount 320 g/ha
In short: (§1)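 Seeds were sown in sterilized diluvial soil, covered with about 1.5 cm of soil, and the soil surface was sprayed with a water-diluted emulsion of the compound at a predetermined rate. Plants grew in a greenhouse at 25° C. to 30° C.; effects were scored visually 3 weeks after application.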

[2] = test system: Abutilon theophrasti; experiment: Test Example 5: herbicidal effect by foliage application, plastic box (symbol M); settings: 320 g/ha, 3 weeks after application
In short: (§2)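 Seeds were sown in sterilized diluvial soil, covered with about 1.5 cm of soil and grown 14 days in a greenhouse at 25° C. to 30° C. An emulsifiable formulation diluted in water to a set rate was sprayed over foliage, and injury was scored 3 weeks later.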

[3] = test system: Echinochloa crus-galli var. crus-galli; experiment: Test Example 4: herbicidal effect by soil treatment (symbol H); settings: application herbicide amount 320 g/ha
In short: as §1

[4] = test system: rapeseed; experiment: Test Example 5: effect on crop by foliage application, plastic box (symbol g); settings: 320 g/ha, 3 weeks after application
In short: (§3)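 Seeds were sown in spots in sterilized diluvial soil held in a plastic box 21 cm × 13 cm × 7 cm deep, covered with about 1.5 cm of soil, and grown in a greenhouse at 25° C. to 30° C.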

[5] = test system: Digitaria ciliaris; experiment: Test Example 4: herbicidal effect by soil treatment (symbol F); settings: application herbicide amount 320 g/ha
In short: as §1

[6] = test system: Alopecurus myosuroides; experiment: Test Example 5: herbicidal effect by foliage application, plastic box (symbol J); settings: 320 g/ha, 3 weeks after application
In short: as §2

[7] = test system: Echinochloa crus-galli var. crus-galli; experiment: Test Example 5: herbicidal effect by foliage application, plastic box (symbol H); settings: 320 g/ha, 3 weeks after application
In short: as §2

[8] = test system: Apera spica-venti; experiment: Test Example 5: herbicidal effect by foliage application, plastic box (symbol L); settings: 320 g/ha, 3 weeks after application
In short: as §2

[9] = test system: rice plant; experiment: Test Example 5: effect on crop by foliage application, plastic box (symbol b); settings: 320 g/ha, 3 weeks after application
In short: as §3

[10] = test system: Monochoria vaginalis; experiment: Test Example 1: herbicidal activity, application before weed generation in submerged conditions (symbol C); settings: application herbicide amount 320 g/ha
In short: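 Flooded alluvial soil (4 cm water) was mixed-sown with the three weed species, and 2.5-leaf rice seedlings were transplanted. On sowing day, a water-diluted emulsion at a predetermined rate was applied to the water surface. After 3 weeks in a 25–30 °C greenhouse, effect was scored 0–5.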

[11] = test system: Scirpus juncoides; experiment: Test Example 2: herbicidal activity, application during weed generation in submerged conditions (symbol B); settings: Table 23; application herbicide amount 320 g/ha; grade 0-5 by criteria of Test Example 1
In short: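 Alluvial soil in pots was flooded to a 4 cm water depth and sown with a mix of the three weed species, then grown in a greenhouse at 25° C. to 30° C. At the one- to two-leaf stage, an emulsifiable formulation diluted in water to a set dose was applied to the water surface. Effects were scored visually 3 weeks later.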

[12] = test system: beet; experiment: Test Example 4: effect on crop by soil treatment (symbol f); settings: application herbicide amount 320 g/ha
In short: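 Greenhouse culture at 25° C. to 30° C. followed sowing of seed in spots on sterilized diluvial soil with a soil cover close to 1.5 cm thick.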

Row | SMILES | P: Stellaria media, herbicidal effect grade [1] | M: Abutilon theophrasti, herbicidal effect grade [2] | H: Echinochloa crus-galli var. crus-galli, herbicidal effect grade [3] | g: rapeseed, effect on crop grade [4] | F: Digitaria ciliaris, herbicidal effect grade [5] | J: Alopecurus myosuroides, herbicidal effect grade [6] | H: Echinochloa crus-galli var. crus-galli, herbicidal effect grade [7] | L: Apera spica-venti, herbicidal effect grade [8] | b: directly sowed rice plant, effect on crop grade [9] | Herbicidal effect grade, C: Monochoria vaginalis [10] | Herbicidal effect grade, B: Scirpus juncoides [11] | H (Echinochloa crus-galli var. crus-galli) herbicidal effect grade [3] | F (Digitaria ciliaris) herbicidal effect grade [5] | f (beet) effect on crop grade [12] | f: beet, effect on crop grade [12]
1 | CON=C(C)CC1CC(O)=C(c2c(C)cc(-n3cc(Cl)cn3)cc2C)C1=O (mixture of isomers) [6-004] | 0 (Herbicidal ratio of 5% or lower (almost no effect)) | 3 (Herbicidal ratio of 40% or higher and lower than 70%) | 5 (Herbicidal ratio of 90% or more (almost completely withered)) | 4 (Herbicidal ratio of 70% or higher and lower than 90%) | 5 (Herbicidal ratio of 90% or more (almost completely withered)) | 5 (Herbicidal ratio of 90% or more (almost completely withered)) | 5 (Herbicidal ratio of 90% or more (almost completely withered)) | 5 (Herbicidal ratio of 90% or more (almost completely withered)) | 5 (Herbicidal ratio of 90% or more (almost completely withered)) | 2 (Herbicidal ratio of 20% or higher and lower than 40%) | 4 (Herbicidal ratio of 70% or higher and lower than 90%) | – | – | – | –
2 | CON=C(C)CC1CC(OCC(=O)OC)=C(c2c(C)cc(C)cc2C)C1=O (stereo not drawn) [1-012] | – | 0 (Herbicidal ratio of 5% or lower (almost no effect)) | – | 0 (Herbicidal ratio of 5% or lower (almost no effect)) | – | 0 (Herbicidal ratio of 5% or lower (almost no effect)) | 0 (Herbicidal ratio of 5% or lower (almost no effect)) | 0 (Herbicidal ratio of 5% or lower (almost no effect)) | 0 (Herbicidal ratio of 5% or lower (almost no effect)) | 0 (Herbicidal ratio of 5% or lower (almost no effect)) | 0 (Herbicidal ratio of 5% or lower (almost no effect)) | 0 (Herbicidal ratio of 5% or lower (almost no effect)) | 0 (Herbicidal ratio of 5% or lower (almost no effect)) | 0 (Herbicidal ratio of 5% or lower (almost no effect)) | –
3 | CCCC(=O)C(C(=O)OC)C1CC(O)=C(c2c(C)cc(C)cc2C)C1=O (stereo not drawn) [2-020] | – | 0 (Herbicidal ratio of 5% or lower (almost no effect)) | 4 (Herbicidal ratio of 70% or higher and lower than 90%) | 0 (Herbicidal ratio of 5% or lower (almost no effect)) | 5 (Herbicidal ratio of 90% or more (almost completely withered)) | 4 (Herbicidal ratio of 70% or higher and lower than 90%) | 4 (Herbicidal ratio of 70% or higher and lower than 90%) | 0 (Herbicidal ratio of 5% or lower (almost no effect)) | 4 (Herbicidal ratio of 70% or higher and lower than 90%) | 0 (Herbicidal ratio of 5% or lower (almost no effect)) | 0 (Herbicidal ratio of 5% or lower (almost no effect)) | – | – | – | 0 (Herbicidal ratio of 5% or lower (almost no effect))
4 | CCOC(=O)C(C(=O)CC1CC1)C1CC(O)=C(c2c(C)cc(C)cc2C)C1=O (stereo not drawn) [2-025] | 0 (Herbicidal ratio of 5% or lower (almost no effect)) | 0 (Herbicidal ratio of 5% or lower (almost no effect)) | 4 (Herbicidal ratio of 70% or higher and lower than 90%) | 3 (Herbicidal ratio of 40% or higher and lower than 70%) | 4 (Herbicidal ratio of 70% or higher and lower than 90%) | 4 (Herbicidal ratio of 70% or higher and lower than 90%) | 4 (Herbicidal ratio of 70% or higher and lower than 90%) | 3 (Herbicidal ratio of 40% or higher and lower than 70%) | 4 (Herbicidal ratio of 70% or higher and lower than 90%) | 0 (Herbicidal ratio of 5% or lower (almost no effect)) | – | – | – | – | 0 (Herbicidal ratio of 5% or lower (almost no effect))
5 | Cc1cc(C)c(C2=C(O)CC(CC(=O)CC3CC3)C2=O)c(C)c1 (stereo not drawn) [2-026] | – | 0 (Herbicidal ratio of 5% or lower (almost no effect)) | 5 (Herbicidal ratio of 90% or more (almost completely withered)) | 3 (Herbicidal ratio of 40% or higher and lower than 70%) | 5 (Herbicidal ratio of 90% or more (almost completely withered)) | 4 (Herbicidal ratio of 70% or higher and lower than 90%) | 4 (Herbicidal ratio of 70% or higher and lower than 90%) | 3 (Herbicidal ratio of 40% or higher and lower than 70%) | 5 (Herbicidal ratio of 90% or more (almost completely withered)) | 0 (Herbicidal ratio of 5% or lower (almost no effect)) | 3 (Herbicidal ratio of 40% or higher and lower than 70%) | – | – | – | 0 (Herbicidal ratio of 5% or lower (almost no effect))
6 | CCc1cc(C)cc(C)c1C1=C(O)CC(CC(C)=NOC)C1=O (stereo not drawn) [6-007] | 0 (Herbicidal ratio of 5% or lower (almost no effect)) | 1 (Herbicidal ratio of 5% or higher and lower than 20%) | 5 (Herbicidal ratio of 90% or more (almost completely withered)) | – | 5 (Herbicidal ratio of 90% or more (almost completely withered)) | 5 (Herbicidal ratio of 90% or more (almost completely withered)) | 5 (Herbicidal ratio of 90% or more (almost completely withered)) | 4 (Herbicidal ratio of 70% or higher and lower than 90%) | 5 (Herbicidal ratio of 90% or more (almost completely withered)) | 1 (Herbicidal ratio of 5% or higher and lower than 20%) | 3 (Herbicidal ratio of 40% or higher and lower than 70%) | – | – | – | 0 (Herbicidal ratio of 5% or lower (almost no effect))
7 | CON=C(C)CC1CC(O)=C(c2c(C)cc(C(=O)OC)cc2C)C1=O (stereo not drawn) [6-023] | 0 (Herbicidal ratio of 5% or lower (almost no effect)) | 0 (Herbicidal ratio of 5% or lower (almost no effect)) | 0 (Herbicidal ratio of 5% or lower (almost no effect)) | 3 (Herbicidal ratio of 40% or higher and lower than 70%) | 1 (Herbicidal ratio of 5% or higher and lower than 20%) | 5 (Herbicidal ratio of 90% or more (almost completely withered)) | 5 (Herbicidal ratio of 90% or more (almost completely withered)) | 4 (Herbicidal ratio of 70% or higher and lower than 90%) | 5 (Herbicidal ratio of 90% or more (almost completely withered)) | 0 (Herbicidal ratio of 5% or lower (almost no effect)) | – | – | – | – | –
8 | CON=C(C)CC1CC(O)=C(c2c(C)cc(C(C)=O)cc2C)C1=O (stereo not drawn) [6-026] | 0 (Herbicidal ratio of 5% or lower (almost no effect)) | 0 (Herbicidal ratio of 5% or lower (almost no effect)) | 1 (Herbicidal ratio of 5% or higher and lower than 20%) | 3 (Herbicidal ratio of 40% or higher and lower than 70%) | 4 (Herbicidal ratio of 70% or higher and lower than 90%) | 5 (Herbicidal ratio of 90% or more (almost completely withered)) | 5 (Herbicidal ratio of 90% or more (almost completely withered)) | 3 (Herbicidal ratio of 40% or higher and lower than 70%) | 5 (Herbicidal ratio of 90% or more (almost completely withered)) | 0 (Herbicidal ratio of 5% or lower (almost no effect)) | – | – | – | – | 0 (Herbicidal ratio of 5% or lower (almost no effect))
